Experimental data published in patent publication US8236340B2, “Drug formulations for coating medical devices” (REVA Medical, Inc., priority 2003, dated 2012).

How the values were obtained:
[1] = Physical stability of drug coated on balloon from dimethylsulfoxide/ethanol solution; assay type: physicochemical
From the text: Initially, the deposited lipid form a translucent film, but within an hour or so the deposited material slowly transforms to a white crystallite appearance. The deposition uniformity as measured by microscopy is spotty across the balloon surface. After several days, the white powder continues to transform until it flakes off the balloon and is no longer believed to be in an available state. Decreased availability may be described as the dissolution/deaggregation time of the solid relative to deposition and diffusion within the artery, which prevents it from exerting its effect. Currently, to study the effect of C6-ceramide in animal models, the DMSO/ethanol formulation containing C6-ceramide is coated onto the balloon just prior to insertion into the artery. The role of the solvent is to keep the lipid material in an available film-like state sufficient for it to be rapidly deposited and absorbed quickly in the artery, where it is shown to exert an effect within 15 minutes. However, organic solvents, in which the drug is very soluble, tend to evaporate rapidly and the solvents may also penetrate and affect the balloon performance. Alternative solvents and formulations are needed that permit the drug to remain in a dissolved state yet remain physically stable without changing with time.

[2] = Solubility/dispersibility of drug in the three formulation approaches; assay type: physicochemical; conditions: all three formulation approaches; all components first dissolved in a volatile solvent such as ethanol
From the text: In all cases the drug was coated onto a balloon from an ethanol solution containing C6-ceramide and the other solvents in each formulation. Once the ethanol evaporated from the surface of the device, the drug was uniformly dispersed over the surface and dissolved within the non-volatile solvent(s). The ethanol was useful in that it decreased the viscosity of the oil/drug mixture thereby promoting uniform coating.

[3] = test system: smooth muscle cell (SMC) proliferation; conditions: cited from earlier work

CCCCCCCCCCCCC/C=C/[C@@H](O)[C@H](CO)NC(=O)CCCCC [C6-ceramide]
physical form of deposited drug over time [1]: physical form of the drug changes with time | solubility/dispersibility in formulation approaches [2]: sufficiently soluble and/dispersible | time to initiate activity ([3]; after application of a single dose from an angioplasty balloon): ≤ 15 min | SMC proliferation ([3]; in vitro cell culture and in vivo (rabbit carotid model and pig coronary)): inhibit SMC proliferation
